Key:
mice = test: two compartment (dark and light) box test, anxiolytic activity; assay type: in vivo; conditions: for % time in black compartment / Black compartment rearings/5 min / Black compartment transits/5 min / Delay white → black / White compartment rearings/5 min / White compartment transits/5 min: 40 min after administration, S.E.M. <12.6%, n = 5
Description: The two compartment box test was conducted in mice to evaluate anxiolytic activity. This test is based on a natural aversion of mice to light. The apparatus used is a box containing two compartments, one of which is dark (labeled "black compartment" in the Table 1) and the other illuminated (labeled "white compartment" in Table 1). The apparatus is designed to allow the animal to choose between staying in either of the two compartments. Under normal conditions, the mice avoid light and usually remain in the dark compartment. Under the influence of an anxiolytic agent, however, exploration of the illustrated compartment predominates. The test consists of placing each mouse in the center of the illuminated compartment and observing the animal's behavior by video system for 5 minutes. The number of exploratory rearings and the number of displacements (the crossing of lines traced on the floor of each compartment constitute "passages") are then recorded for each compartment. An anxiolytic effect induced by a drug, such as diazepam, is characterized by an increase in the number of exploratory rearings and in the number of passages into the illuminated compartment. The compounds of the invention were injected subcutaneously at variable doses, each dose being administered to a group of 5 mice.

rats = test: hyperactivity induced by injection of amphetamine into the nucleus accumbens (motor activity), antipsychotic activity; assay type: in vivo
Description: Tests were conducted to measure the antipsychotic activity of the compounds of the invention. In particular, the hyperactivity induced in rats by the perfusion of amphetamine into the nucleus accumbens was evaluated. This test consists in determining the effect of the compounds of the invention on hyperactivity produced in rats by the injection of amphetamine into the nucleus accumbens. Hyperactivity was induced by injecting 20 μg of amphetamine bilaterally into the nucleus accumbens. The compounds of the invention were administered subcutaneously at doses of 1 mg/kg and 10 mg/kg, 40 minutes before the injection of amphetamine. For each dose of test product, a group of 5 animals was used. A group treated only with amphetamine and a reference group which received only an inert vehicle comprised 10 animals.
Immediately after the injection of amphetamine, the rats were placed in individual cages equipped with photoelectric cells. Motor activity, characterized by the number of shifts from place to place in these cages, was determined by the number of interruptions of a light beam striking these cells. The measurements were made during the 80 minutes following the injection of amphetamine. The results, expressed as the number of shifts from place to place per 10-minute period, are collated in Table 2.

[1] = acute toxicity, median lethal dose (LD50) intravenously; conditions: mouse, in vivo, iv
From the text: The compounds of the invention were also subjected to a study of acute toxicity when injected intravenously in male mice and female mice, which enabled the median lethal doses (LD50) to be determined.

Structure (SMILES): CCN1CCCC1CNC(=O)c1cc(Br)c(NC2=NC(C)CN2)cc1OC (centres unmarked) [Compound 4, N-(1-ethyl-2-pyrrolidinylmethyl)-2-methoxy-4-[(4,5-dihydro-4-methyl-1H-imidazol-2-yl)amino]-5-bromobenzamide]
- % time in black compartment (mice; 0.0001 mg/kg s.c.): 27%
- Black compartment rearings/5 min (mice; 0.0001 mg/kg s.c.): 19 rearings/5 min
- Black compartment transits/5 min (mice; 0.0001 mg/kg s.c.): 21 transits/5 min
- Delay white → black (mice; 0.0001 mg/kg s.c.): 23 s
- White compartment rearings/5 min (mice; 0.0001 mg/kg s.c.): 73 rearings/5 min
- White compartment transits/5 min (mice; 0.0001 mg/kg s.c.): 82 transits/5 min
- % time in black compartment (mice; 0.01 mg/kg s.c.): 31%
- Black compartment rearings/5 min (mice; 0.01 mg/kg s.c.): 15 rearings/5 min
- Black compartment transits/5 min (mice; 0.01 mg/kg s.c.): 20 transits/5 min
- Delay white → black (mice; 0.01 mg/kg s.c.): 22 s
- White compartment rearings/5 min (mice; 0.01 mg/kg s.c.): 82 rearings/5 min
- White compartment transits/5 min (mice; 0.01 mg/kg s.c.): 83 transits/5 min
- % time in black compartment (mice; 0.1 mg/kg s.c.): 34%
- Black compartment rearings/5 min (mice; 0.1 mg/kg s.c.): 16 rearings/5 min
- Black compartment transits/5 min (mice; 0.1 mg/kg s.c.): 24 transits/5 min
- Delay white → black (mice; 0.1 mg/kg s.c.): 38 s
- White compartment rearings/5 min (mice; 0.1 mg/kg s.c.): 78 rearings/5 min
- White compartment transits/5 min (mice; 0.1 mg/kg s.c.): 99 transits/5 min
- minimal effective dose (mice; Mus musculus, sc, 40 min, subcutaneous, mice, read-out: dose at and above which anxiolytic activity is manifested): ≥ 0.0001 mg/kg
- Motor activity (rats; 1 mg/kg s.c. 40 min before amphetamine 20 μg, time 10 min): 34 ± 8 shifts from place to place/10 minutes
- Motor activity (rats; 1 mg/kg s.c. 40 min before amphetamine 20 μg, time 20 min): 60 ± 13 shifts from place to place/10 minutes
- Motor activity (rats; 1 mg/kg s.c. 40 min before amphetamine 20 μg, time 30 min): 40 ± 10 shifts from place to place/10 minutes
- Motor activity (rats; 1 mg/kg s.c. 40 min before amphetamine 20 μg, time 40 min): 38 ± 13 shifts from place to place/10 minutes
- Motor activity (rats; 1 mg/kg s.c. 40 min before amphetamine 20 μg, time 50 min): 37 ± 10 shifts from place to place/10 minutes
- Motor activity (rats; 1 mg/kg s.c. 40 min before amphetamine 20 μg, time 60 min): 16 ± 2 shifts from place to place/10 minutes
- Motor activity (rats; 1 mg/kg s.c. 40 min before amphetamine 20 μg, time 70 min): 8 ± 3 shifts from place to place/10 minutes
- Motor activity (rats; 1 mg/kg s.c. 40 min before amphetamine 20 μg, time 80 min): 4 ± 2 shifts from place to place/10 minutes
- Motor activity (rats; 10 mg/kg s.c. 40 min before amphetamine 20 μg, time 10 min): 38 ± 7 shifts from place to place/10 minutes
- Motor activity (rats; 10 mg/kg s.c. 40 min before amphetamine 20 μg, time 20 min): 8 ± 1.4 shifts from place to place/10 minutes
- Motor activity (rats; 10 mg/kg s.c. 40 min before amphetamine 20 μg, time 30 min): 9 ± 3 shifts from place to place/10 minutes
- Motor activity (rats; 10 mg/kg s.c. 40 min before amphetamine 20 μg, time 40 min): 11 ± 1.6 shifts from place to place/10 minutes
- Motor activity (rats; 10 mg/kg s.c. 40 min before amphetamine 20 μg, time 50 min): 5 ± 1 shifts from place to place/10 minutes
- Motor activity (rats; 10 mg/kg s.c. 40 min before amphetamine 20 μg, time 60 min): 2 ± 1 shifts from place to place/10 minutes
- LD50 ([1]; female mice): 18 mg/kg
- LD50 ([1]; male mice): 15.5 mg/kg

From patent publication US5086066A, “Method of providing anxiolytic and antipsychotic treatment with substituted benzamides” (priority 1988, dated 1992)
